Key:
[1] = tested on: cleaved PARP, XIAP and cIAP2 in MiaPaca-2 cells; test: Western blot of apoptosis markers and inhibitors of apoptosis, MiaPaca-2; format: cell-based, human; conditions: for XIAP and c-IAP2 protein levels: 24 h
Protocol: (§1) Pancreatic cells were collected after trypsinization and seeded in 12-well plates for 24 h before treatments. Treatments were performed as described in the Figure legends. Following treatment, whole cell lysates were collected in Laemmli buffer and analyzed by Western blot. The following primary antibodies were used: XIAP, c-IAP2, cleaved PARP, Caspase-3 (all from Cell Signaling), actin (Santa Cruz) and LHRHR (Abcam).
(§2) Western blot analysis. Actin, GAPDH and Ponceau staining were used as loading controls. Gemcitabine was diluted in water. Curcumin and LHRH-curcumin were diluted in DMSO. Cells were treated as follows:
(§3) Western blot analysis. Actin, GAPDH and Ponceau staining were used as loading controls. Gemcitabine was diluted in water. Curcumin and LHRH-curcumin were diluted in DMSO. The cells were treated as follows:
(§4) Western blot analysis. Actin was used as loading control. Both gemcitabine and LHRH-curcumin were diluted in water.

[2] = tested on: cleaved PARP, XIAP and cIAP2 in Panc-1 cells; test: Western blot of apoptosis markers and inhibitors of apoptosis, Panc-1; format: cell-based; conditions: for XIAP and c-IAP2 protein levels: 24 h
Protocol: as §1, §2, §3, §4

[3] = tested on: cleaved PARP, XIAP and cIAP2 in AsPC-1 cells; test: Western blot of apoptosis markers and inhibitors of apoptosis, AsPC-1; format: cell-based; conditions: for XIAP and c-IAP2 protein levels: 24 h
Protocol: as §1, §2
(§5) Western blot analysis. Actin, GAPDH and Ponceau staining were used as loading controls. Gemcitabine was diluted in water. Curcumin and LHRH-curcumin were diluted in DMSO.

[4] = tested on: cleaved PARP, XIAP and cIAP2 in BxPC-3 cells; test: Western blot of apoptosis markers and inhibitors of apoptosis, BxPC-3; format: cell-based; conditions: for XIAP and c-IAP2 protein levels: 24 h
Protocol: as §1, §2, §5

[5] = tested on: XIAP, cIAP1 and cIAP2 mRNA in Panc-1 cells; test: Quantitative PCR of inhibitors of apoptosis, Panc-1; format: cell-based; conditions: 50 uM, 24 h post-treatment, relative to DMSO, GAPDH reference
Protocol: mRNA levels of XIAP, c-IAP1 and c-IAP2 were determined by quantitative real-time PCR using the SYBR Green Real-Time PCR Master Mix form ThermoFisher. Thermal cycling was carried out using the CFX system from BioRad under the following conditions: 95° C. for 10 min and 40 cycles at 95° C. for 15 s and 55° C. for 60 s. mRNA expression for any given gene is represented as comparative to the DMSO-treated cells. GAPDH was used as the housekeeping gene of reference.
GAPDH was used as a reference. Results presented in FIG. 12A (XIAP relative mRNA levels), FIG. 12B (cIAP1 relative mRNA levels), FIG. 12C (cIAP2 relative mRNA levels).

Panc-1 cells spheroids = test: 3D spheroid growth (IncuCyte ZOOM), Panc-1; format: cell-based; conditions: LHRH 30 μM, LHRH-curcumin 30 μM
Protocol: A protocol that enables the growth of identical size single cancer cell spheroids in Matrigel in 96 well plates has been developed.
Panc-1 and Mia-Paca-2 cells were grown in 10% FBS DMEM. Cells were collected after trypsinization and resuspended in phenol-red free DMEM with 10% FBS. Cells were labeled with CellTracker Red (Life Techmologies) for 5 minutes. After labeling cells were washed with PBS and transfer into 96-well Corning 7007 ULA round bottom plates at 1,000 cells/well in 100 μl phenol-red free media with 10% FBS and 5% Matrigel. […] Spheroids were grown at 37° C. and 5% CO2 in IncuCyte ZOOM (Essen Bioscience). Images were acquired every 4 h for a period of 120 h post-treatment and software analysis was design to identify the red object in the well. The data were expressed as fold increase in spheroids size at the end of the treatment using the “average red object area in the well” as determined by the IncuCyte software analysis. Reproducibility was confirmed in three independent experiments. Spheroids grew at a uniform rate (FIG. 1).

[6] = tested on: non-target control (NT) Panc-1 spheroides; test: 3D spheroid growth, non-target control (NT) Panc-1; format: cell-based; conditions: 30 μM
[7] = 50 uM in the presence of gemcitabine (5 uM)
[8] = curcumin, LHRH-curcumin 50 uM and 100 uM alone, gemcitabine alone
[9] = 24 h post-treatment, curcumin, LHRH-curcumin 10-100 uM, gemcitabine 1-20 uM

Row | Compound | XIAP and c-IAP2 protein levels [1, 7] | XIAP and c-IAP2 protein levels [1, 8] | apoptosis marker cleaved PARP [1, 9] | XIAP and c-IAP2 protein levels [2, 7] | XIAP and c-IAP2 protein levels [2, 8] | apoptosis marker cleaved PARP [2, 9] | XIAP and c-IAP2 protein levels [3, 7] | XIAP and c-IAP2 protein levels [3, 8] | apoptosis marker cleaved PARP [3, 9] | XIAP and c-IAP2 protein levels [4, 7] | XIAP and c-IAP2 protein levels [4, 8] | apoptosis marker cleaved PARP [4, 9] | mRNA levels of XIAP, cIAP1 and c-IAP2 [5] | spheroids growth (Panc-1 cells spheroids) | spheroids growth [6]
1 | COc1cc(/C=C/C(=O)CC(=O)/C=C/c2ccc(O)c(OC)c2)ccc1O [curcumin] | down-regulated | down-regulated | initiate apoptosis as illustrated by the presence of cleaved PARP | down-regulated | down-regulated | initiate apoptosis as illustrated by the presence of cleaved PARP | down-regulated | down-regulated | initiate apoptosis as illustrated by the presence of cleaved PARP | down-regulated | down-regulated | initiate apoptosis as illustrated by the presence of cleaved PARP | down-regulated |  | 
2 | luteinizing hormone releasing hormone (EHWSYGLRPG) [LHRH, Gonadotropin-releasing hormone (GnRH, also called luteinizing hormone releasing hormone or LHRH), reference compound] |  |  |  |  |  |  |  |  |  |  |  |  |  | inhibitory effect on spheroids growth | inhibitory effect on NT Panc-1 spheroids growth
